Values of other authors as cited in patent US12678449B2, “Compositions including cannabis and avocado/soybean unsaponifiables and methods of use” (Nutramax Laboratories, Inc., priority 2019, dated 2026).
Read-outs that look alike come from different tables or passages of the source.

Columns and labels:
[1] = beagle dogs, oral, single dose
[2] = human

**Q.** For `C=C(C)[C@@H]1CCC(C)=C[C@H]1c1c(O)cc(CCCCC)cc1O` [CBD, 2-[(1R,6R)-3-methyl-6-prop-1-en-2-ylcyclohex-2-en-1-yl]-5-pentylbenzene-1,3-diol], which “median maximal concentration of CBD in serum” value ([1]; 2 mg/kg CBD in olive oil) is on record?
**A.** 102.3 ng/mL

**Q.** And the “median maximal concentration of CBD in serum” value ([1]; 8 mg/kg CBD in olive oil)?
**A.** 590.8 ng/mL

**Q.** And the CMAX ([2]; 10 mg dose of CBD (Guy et al.))?
**A.** 2.47 ng/mL

**Q.** What about the “mean plasma concentration of CBD” value ([2]; 1 h after oral intake of 5.4 mg dose (Nadulski et al.)) of the same molecule?
**A.** 0.95 ng/mL

**Q.** What about the “mean plasma level of CBD” value ([2]; oral administration of 40 mg of CBD (Agurell et al.)) of the same molecule?
**A.** 5.5 ng/mL
